In test [1] the target is T1, SSTR1 (Homo sapiens, UniProt P30872).
T1 construct: expressed in transfected cells; host or cells: COS and CHO cells
Put plainly: Inhibition of [125I-Tyr11]SRIF binding to cloned human SSTR1. As to the method: In a typical assay, an amount of protein from the cell homogenate is placed into a small volume of an appropriate assay buffer at an appropriate pH.
(§1) Alternatively, IC50 values indicative of the concentration of a competitive ligand necessary to displace a saturation concentration of a target ligand being measured from 50% of binding sites can also be calculated in such competitive assays.
(§2) In vitro Bioassay: The effects of the various somatostatin analogs are tested in vitro for their ability to bind to isolated cloned receptors expressed on COS and CHO cells.
(§3) The molecular cloning of the genes encoding multiple somatostatin receptor subtypes permits the individual expression of these receptors in mammalian cells and the characterization of their respective pharmacological profiles.

A further test has as its target T2, mSSTR2 (Mus musculus, UniProt P30875).
T2 construct: expressed in transfected cells; host or cells: COS and CHO cells
As to the kind of experiment: Inhibition of [125I-Tyr11]SRIF binding to cloned mSSTR2 (Table). As to the method: as §2, §3
(§4) Certain of the measurements are in progress.

In a further test the target is T3, mSSTR3 (Mus musculus, UniProt P30935).
T3 construct: expressed in transfected cells; host or cells: COS and CHO cells
As to the kind of experiment: Inhibition of [125I-Tyr11]SRIF binding to cloned mSSTR3 (Table). As to the method:
as §2, §3, §4

The target of another test is T4, mSSTR1 (Mus musculus, UniProt P30873).
T4 construct: expressed in transfected cells; host or cells: COS and CHO cells
Put plainly: Inhibition of [125I-Tyr11]SRIF binding to cloned mSSTR1 (Table). As to the method:
as §2, §3, §4

Test [2] has as its target T1, SSTR1. As to the kind of experiment: Inhibition of binding of iodinated Peptide No. 5 to SSTR1. Conditions: radioligand iodinated Peptide No. 5.
Excerpt: as §1
(§5) The Bmax value represents the highest number of specific sites which can be occupied at a given time, i.e. the saturation point.

Test [3] has as its system COS-7 cells expressing SSTR1. Put plainly: Forskolin-stimulated cAMP formation in COS-7 cells expressing SSTR1. It counts as cell-based. Conditions: 1 μM of Peptide No. 2.
A further test has as its target T5, SSTR2 (Mus musculus, UniProt P30875).
T5 construct: expressed in transfected cells; host or cells: COS and CHO cells
Put plainly: Direct binding of iodinated Peptide No. 5 to cloned SSTR2.
Excerpt: as §5

Test [4] concerns the target T1, SSTR1. As to the kind of experiment: Direct saturation binding of iodinated Peptide No. 5 to cloned SSTR1. Conditions: iodinated peptide as radioligand.
Excerpt: as §1, §5

A further test concerns the target T6, SSTR5 (Rattus norvegicus, UniProt P30938).
T6 construct: expressed in transfected cells; host or cells: COS and CHO cells
T6 sequence (P30938 1-363): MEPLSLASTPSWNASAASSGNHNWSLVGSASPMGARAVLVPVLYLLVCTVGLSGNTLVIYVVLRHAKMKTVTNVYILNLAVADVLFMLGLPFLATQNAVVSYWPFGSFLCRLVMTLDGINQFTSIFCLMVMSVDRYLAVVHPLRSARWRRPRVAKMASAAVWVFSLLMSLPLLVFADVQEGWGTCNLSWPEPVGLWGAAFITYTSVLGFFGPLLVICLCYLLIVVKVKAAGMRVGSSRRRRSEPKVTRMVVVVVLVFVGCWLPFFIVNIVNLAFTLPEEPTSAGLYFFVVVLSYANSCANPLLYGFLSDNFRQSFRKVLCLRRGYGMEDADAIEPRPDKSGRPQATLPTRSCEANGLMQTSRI
Put plainly: Direct binding of iodinated Peptide No. 5 to cloned SSTR5.
Excerpt: as §5

A further test deals with T7, SSTR3 (Mus musculus, UniProt P30935).
T7 construct: expressed in transfected cells; host or cells: COS and CHO cells
As to the kind of experiment: Direct binding of iodinated Peptide No. 5 to cloned SSTR3.
Excerpt: as §5

Another test addresses T8, SSTR4 (Homo sapiens, UniProt P31391).
T8 construct: expressed in transfected cells; host or cells: COS and CHO cells
As to the kind of experiment: Direct binding of iodinated Peptide No. 5 to cloned SSTR4.
Excerpt: as §5

Test [5] concerns the target T9, SSTR1 expressed in COS-7 cells (Homo sapiens, UniProt P30872).
T9 construct: expressed in transfected cells; host or cells: COS-7 cells
As to the kind of experiment: GTPgS and pertussis toxin regulation of radioligand binding to SSTR1 expressed in COS-7 cells.
Excerpt: as §5

Entries after “also recorded” stand apart in the source; their conditions may differ. Where a SMILES comes first, the peptide text is derived from it. Bridges are numbered along the chain shown (N, C = ends). Where no end group is shown, it is not given here. [ ]: non-standard residue; d: D form. The star is where a group is joined. Phe(4-CH2NHiPr) = CC(C)NCc1ccc(C[C@H](N)C(=O)O)cc1; Tyr(3-I) = N[C@@H](Cc1ccc(O)c(I)c1)C(=O)O; 125I = [125I]*

From patent publication US5750499A, “Receptor-selective somatostatin analogs” (The Salk Institute for Biological Studies, priority 1995, dated 1998) come the findings set out here.

T3 sequence (P30935 whole entry): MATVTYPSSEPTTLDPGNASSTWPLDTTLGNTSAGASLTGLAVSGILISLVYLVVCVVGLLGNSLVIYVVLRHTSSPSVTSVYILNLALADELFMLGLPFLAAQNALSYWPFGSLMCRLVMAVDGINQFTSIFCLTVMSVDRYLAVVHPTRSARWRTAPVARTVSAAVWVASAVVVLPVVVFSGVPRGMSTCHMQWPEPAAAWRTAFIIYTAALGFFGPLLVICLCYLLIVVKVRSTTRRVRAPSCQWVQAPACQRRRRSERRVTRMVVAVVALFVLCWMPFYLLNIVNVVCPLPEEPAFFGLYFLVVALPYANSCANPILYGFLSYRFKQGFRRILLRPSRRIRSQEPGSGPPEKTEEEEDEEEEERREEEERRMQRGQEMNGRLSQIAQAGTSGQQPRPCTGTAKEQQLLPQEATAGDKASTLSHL
T4 sequence (P30873 whole entry): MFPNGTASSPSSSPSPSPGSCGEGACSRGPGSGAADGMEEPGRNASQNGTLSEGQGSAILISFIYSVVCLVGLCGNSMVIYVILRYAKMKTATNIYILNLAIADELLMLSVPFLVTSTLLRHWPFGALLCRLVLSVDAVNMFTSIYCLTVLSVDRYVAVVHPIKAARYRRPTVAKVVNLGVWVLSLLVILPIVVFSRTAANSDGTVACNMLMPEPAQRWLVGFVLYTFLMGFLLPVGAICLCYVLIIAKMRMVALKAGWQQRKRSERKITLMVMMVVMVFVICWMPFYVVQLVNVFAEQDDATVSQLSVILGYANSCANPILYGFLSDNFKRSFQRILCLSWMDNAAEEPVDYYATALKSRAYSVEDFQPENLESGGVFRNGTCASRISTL
T9 sequence (P30872 whole entry): as the sequence (P30873 whole entry) above, with A25G, C26G, S32A, A385T, S389T counted along it
T1 sequence (P30872 whole entry): as the sequence (P30873 whole entry) above, with A25G, C26G, S32A, A385T, S389T counted along it
T2 sequence (P30875 whole entry): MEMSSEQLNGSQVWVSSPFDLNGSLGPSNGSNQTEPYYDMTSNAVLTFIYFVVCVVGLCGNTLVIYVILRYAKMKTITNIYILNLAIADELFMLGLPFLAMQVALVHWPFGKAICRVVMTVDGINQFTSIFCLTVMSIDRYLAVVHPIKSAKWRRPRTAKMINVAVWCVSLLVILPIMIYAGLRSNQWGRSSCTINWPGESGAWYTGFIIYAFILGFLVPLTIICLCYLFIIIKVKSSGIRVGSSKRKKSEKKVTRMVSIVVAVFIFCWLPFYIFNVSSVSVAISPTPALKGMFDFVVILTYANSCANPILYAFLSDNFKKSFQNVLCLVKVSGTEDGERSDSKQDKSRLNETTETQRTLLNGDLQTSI
T7 sequence (P30935 whole entry): as the sequence (P30935 whole entry) above
T5 sequence (P30875 whole entry): as the sequence (P30875 whole entry) above
T8 sequence (P31391 whole entry): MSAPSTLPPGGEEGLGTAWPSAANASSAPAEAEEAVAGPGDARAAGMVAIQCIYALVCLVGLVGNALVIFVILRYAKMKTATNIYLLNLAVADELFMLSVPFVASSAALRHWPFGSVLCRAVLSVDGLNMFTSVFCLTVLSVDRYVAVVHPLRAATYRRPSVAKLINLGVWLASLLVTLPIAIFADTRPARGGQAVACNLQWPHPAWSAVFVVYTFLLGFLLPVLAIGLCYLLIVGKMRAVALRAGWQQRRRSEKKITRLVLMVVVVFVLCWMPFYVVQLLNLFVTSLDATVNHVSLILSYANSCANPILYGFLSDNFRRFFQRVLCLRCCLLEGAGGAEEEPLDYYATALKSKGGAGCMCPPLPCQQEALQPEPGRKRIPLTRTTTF

For `CC(C)NCc1ccc(C[C@@H]2NC(=O)[C@@H](Cc3c[nH]c4ccccc34)NC(=O)[C@H](Cc3ccccc3)NC(=O)[C@H](Cc3ccccc3)NC(=O)[C@H](CCCCN)NC(=O)[C@@H](N)CSSC[C@@H](C(=O)O)NC(=O)[C@H](CO)NC(=O)[C@H]([C@@H](C)O)NC(=O)[C@H](Cc3ccccc3)NC(=O)[C@H]([C@@H](C)O)NC2=O)cc1` [Peptide No. 2, des-AA^1,2,5 [D-Trp^8, IAmp^9]-SRIF] (H-CKFF[dW][Phe(4-CH2NHiPr)]TFTSC-OH; disulfide 1-11), the IC50 stood at 1.8 ± 0.7 nM at SSTR1 [1], 1100 nM at mSSTR2, 1000 nM on mSSTR3 and 1 nM on mSSTR1.

As to `CC(C)NCc1ccc(C[C@@H]2NC(=O)[C@@H](Cc3c[nH]c4ccccc34)NC(=O)[C@H](Cc3ccccc3)NC(=O)[C@H](Cc3ccccc3)NC(=O)[C@H](CCCCN)NC(=O)[C@@H](N)CSSC[C@@H](C(=O)O)NC(=O)[C@@H](CO)NC(=O)[C@H]([C@@H](C)O)NC(=O)[C@H](Cc3ccccc3)NC(=O)[C@H]([C@@H](C)O)NC2=O)cc1` [Peptide No. 4, des-AA^1,2,5-[D-Trp^8, IAmp^9, D-Ser^13]SRIF] (H-CKFF[dW][Phe(4-CH2NHiPr)]TFT[dS]C-OH; disulfide 1-11), the IC50 at mSSTR2 is more than 1000 nM; on SSTR1 [2], 5.3 ± 0.8 nM; on mSSTR3, 178 nM; at mSSTR1, 1.25 nM.

In the case of `CC(C)NCc1ccc(C[C@@H]2NC(=O)[C@@H](Cc3c[nH]c4ccccc34)NC(=O)[C@H](Cc3ccccc3)NC(=O)[C@H](Cc3ccccc3)NC(=O)[C@H](CCCCN)NC(=O)[C@@H](NC(=O)[C@@H](N)Cc3ccc(O)cc3)CSSC[C@@H](C(=O)O)NC(=O)[C@H](CO)NC(=O)[C@H]([C@@H](C)O)NC(=O)[C@H](Cc3ccccc3)NC(=O)[C@H]([C@@H](C)O)NC2=O)cc1` [Peptide No. 5] (H-YCKFF[dW][Phe(4-CH2NHiPr)]TFTSC-OH; disulfide 2-12), the IC50 at mSSTR2 is more than 100 nM; on mSSTR3 it was more than 100 nM; at mSSTR1, 0.8 nM.

Regarding `CC(C)NCc1ccc(C[C@@H]2NC(=O)[C@@H](Cc3c[nH]c4ccccc34)NC(=O)[C@H](Cc3ccccc3)NC(=O)[C@H](Cc3ccccc3)NC(=O)[C@H](CC(N)=O)NC(=O)[C@H](CCCCN)NC(=O)[C@@H](N)CSSC[C@@H](C(=O)O)NC(=O)[C@H](CO)NC(=O)[C@H]([C@@H](C)O)NC(=O)[C@H](Cc3ccccc3)NC(=O)[C@H]([C@@H](C)O)NC2=O)cc1` [Peptide No. 9] (H-CKNFF[dW][Phe(4-CH2NHiPr)]TFTSC-OH; disulfide 1-12), the IC50 at mSSTR2 was more than 1000 nM; at mSSTR3 it was more than 1000 nM; on mSSTR1, 54 nM.

Take `C[C@H](N)C(=O)NCC(=O)N[C@H]1CSSC[C@@H](C(=O)O)NC(=O)[C@H](CO)NC(=O)[C@H]([C@@H](C)O)NC(=O)[C@H](Cc2ccccc2)NC(=O)[C@H]([C@@H](C)O)NC(=O)[C@H](CCCCN)NC(=O)[C@H](Cc2c[nH]c3ccccc23)NC(=O)[C@H](Cc2ccccc2)NC(=O)[C@H](Cc2ccccc2)NC(=O)[C@H](CC(N)=O)NC(=O)[C@H](CCCCN)NC1=O` [SRIF, somatostatin-14]: the “inhibition of forskolin-stimulated cAMP formation” value in test [3] was “Neither 1 μM of Peptide No. 2, nor SRIF itself, inhibits forskolin-stimulated cAMP formation”.

As for `CC(C)NCc1ccc(C[C@@H]2NC(=O)[C@@H](Cc3c[nH]c4ccccc34)NC(=O)[C@H](Cc3ccccc3)NC(=O)[C@H](Cc3ccccc3)NC(=O)[C@@H](N)CSSC[C@@H](C(=O)O)NC(=O)[C@H](Cc3ccccc3)NC(=O)[C@H]([C@@H](C)O)NC2=O)cc1` [[IAmp^9]ODT8, [IAmp^5]-ODT8] (H-CFF[dW][Phe(4-CH2NHiPr)]TFC-OH; disulfide 1-8), the figures for the IC50 at mSSTR2, on mSSTR3 and on mSSTR1 were more than 1000 nM, 500 nM and 160 nM, respectively.

On to `CC(C)NCc1ccc(C[C@@H]2NC(=O)[C@@H](Cc3c[nH]c4ccccc34)NC(=O)[C@H](Cc3ccccc3)NC(=O)[C@H](Cc3ccccc3)NC(=O)[C@H](CCCCN)NC(=O)[C@@H](NC(=O)[C@@H](N)Cc3ccc(O)c(I)c3)CSSC[C@@H](C(=O)O)NC(=O)[C@H](CO)NC(=O)[C@H]([C@@H](C)O)NC(=O)[C@H](Cc3ccccc3)NC(=O)[C@H]([C@@H](C)O)NC2=O)cc1` [^125 I-Tyr^2-des-AA^1,5-[D-Trp^8,IAmp^9]SRIF] (H-[Tyr(3-I)]CKFF[dW][Phe(4-CH2NHiPr)]TFTSC-OH; disulfide 2-12), for which the “specific binding of iodinated peptide to SSTR2” value on SSTR2 is listed as “did not bind”. Moreover, at SSTR1 [4], the “Bmax, binding to SSTR1” value came to 226±56 fmol/mg protein. Also, the “specific binding of iodinated peptide to SSTR5” value at SSTR5 is “did not bind”. The “specific binding of iodinated peptide to SSTR3” value on SSTR3 is listed as “did not bind”. Moreover, the “specific binding of iodinated peptide to SSTR4” value on SSTR4 is recorded as “did not bind”. Besides, the “effect of GTPgS and pertussis toxin treatment on binding of the radioligand to SSTR1” value in test [5] was “reduced by GTPgS and pertussis toxin treatment”.

For the compound “[^125 I-Tyr^11 ]SRIF (AGCKNFFWKTY(125I)TSC; ends and bridges not checked; UniProt P61278 103-116, looked up, variant F11Y)”, the “effect of GTPgS and pertussis toxin treatment on binding of the radioligand to SSTR1” value in test [5] was “did not diminish; also recorded: not significantly effected by GTP analogs nor pertussis toxin treatment”.
